Data taken from ChEMBL document CHEMBL1156968, “2,5-Disubstituted pyridines as potent GPR119 agonists” (Bioorg Med Chem Lett, 2010).
Converted amounts (≈) assume the structure as drawn.

Legend:
[1] = target: T1, Glucose-dependent insulinotropic receptor (Homo sapiens, UniProt Q8TDV5); test: Agonist activity at human GPR119 receptor expressed in CHO-K1 cells co-transfected with 6CRE-Luc after 5 hrs by luciferase reporter gene assay; type: functional, cell-based
T1 sequence (Q8TDV5 whole entry): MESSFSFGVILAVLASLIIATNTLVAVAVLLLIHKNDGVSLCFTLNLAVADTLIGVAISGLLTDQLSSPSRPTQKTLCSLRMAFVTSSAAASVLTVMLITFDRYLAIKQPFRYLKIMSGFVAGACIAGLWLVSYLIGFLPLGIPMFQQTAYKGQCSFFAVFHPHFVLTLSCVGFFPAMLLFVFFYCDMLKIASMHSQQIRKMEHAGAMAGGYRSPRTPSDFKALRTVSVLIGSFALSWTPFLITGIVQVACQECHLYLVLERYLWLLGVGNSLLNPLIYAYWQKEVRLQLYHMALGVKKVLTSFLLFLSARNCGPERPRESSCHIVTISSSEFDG

[2] = target: T2, Glucose-dependent insulinotropic receptor (Homo sapiens) (UniProt Q8TDV5); test: Agonist activity at human GPR119 receptor expressed in CHO-K1 cells co-transfected with 6CRE-Luc after 5 hrs by luciferase reporter gene assay relative to N-(4-(1H-1,2,4-triazol-1-yl)phenyl)-5-nitro-6-(4-(pyridin-2-ylthio)piperidin-1-yl)pyrimidin-4-amine maximal response; type: functional, cell-based
T2 sequence (whole entry): T1 sequence (Q8TDV5 whole entry)

[3] = target: T1, Glucose-dependent insulinotropic receptor; test: Agonist activity at human GPR119 receptor by cAMP mobilization assay; type: functional
[4] = Cmax in mouse at 3 mg/kg, iv; type: ADME, organism-based; design: dose 3 mg/kg, route intravenous; conditions: in vivo
[5] = Cmax in mouse at 30 mg/kg, po; type: ADME, organism-based; design: dose 30 mg/kg, route oral; conditions: in vivo
[6] = Tmax in mouse at 3 mg/kg, iv; type: ADME, organism-based; design: dose 3 mg/kg, route intravenous; conditions: in vivo
[7] = Tmax in mouse at 30 mg/kg, po; type: ADME, organism-based; design: dose 30 mg/kg, route oral; conditions: in vivo
[8] = Half life in mouse at 3 mg/kg, iv; type: ADME, organism-based; design: dose 3 mg/kg, route intravenous; conditions: in vivo
[9] = Half life in mouse at 30 mg/kg, po; type: ADME, organism-based; design: dose 30 mg/kg, route oral; conditions: in vivo
[10] = AUC (0 to 24) in mouse at 3 mg/kg, iv; type: ADME, organism-based; design: time < 24 hr, dose 3 mg/kg, route intravenous; conditions: plasma
[11] = AUC (0 to 24) in mouse at 30 mg/kg, po; type: ADME, organism-based; design: time < 24 hr, dose 30 mg/kg, route oral; conditions: plasma
Mus musculus = test: Clearance in mouse at 3 mg/kg, iv; type: ADME, organism-based; design: dose 3 mg/kg, route intravenous; conditions: in vivo
[12] = Volume of distribution at steady state in mouse at 3 mg/kg, iv; type: ADME, organism-based; design: dose 3 mg/kg, route intravenous; conditions: in vivo, read-out: Vdss
[13] = Membrane permeability by PAMPA method; type: ADME; conditions: read-out: permeability
[14] = Solubility in fasted simulated intestinal fluid at pH 6.5; type: physicochemical
[15] = Oral bioavailability in mouse at 30 mg/kg; type: ADME, organism-based; conditions: in vivo

SMILES | EC50 [1] | Activity [2] | also measured
CCN(CC)S(=O)(=O)N1CCN(c2ccc(OCC3CCN(C(=O)OC(C)C)CC3)cn2)CC1 | 1200 nM | 125% | –
CC(C)NC(=O)CN1CCN(c2ccc(OCC3CCN(C(=O)OC(C)C)CC3)cn2)CC1 | > 10000 nM | 11% | –
CC(C)OC(=O)N1CCC(COc2ccc(N3CCN(S(=O)(=O)C4CCCCC4)CC3)nc2)CC1 | 200 nM | 165% | –
CC(C)OC(=O)N1CCC(COc2ccc(N3CCN(S(=O)(=O)C(C)C)CC3)nc2)CC1 | 300 nM | 171% | –
CC(C)OC(=O)N1CCC(COc2ccc(N3CCN(S(=O)(=O)N4CCCCC4)CC3)nc2)CC1 | 1000 nM | 118% | –
CC(C)OC(=O)N1CCC(COc2ccc(N3CCN(C(=O)N(C)C)CC3)nc2)CC1 | > 10000 nM | 23% | –
CCCS(=O)(=O)N1CCN(c2ccc(OCC3CCN(C(=O)c4ccco4)CC3)cn2)CC1 | 2000 nM | 112% | –
COCCS(=O)(=O)N1CCN(c2ccc(OCC3CCN(C(=O)OC(C)C)CC3)cn2)CC1 | 300 nM | 178% | –
CC(C)OC(=O)N1CCC(COc2ccc(N3CCN(S(=O)(=O)CC4CCCCC4)CC3)nc2)CC1 | 90 nM | 136% | –
CC(C)OC(=O)N1CCC(COc2ccc(N3CCN(S(=O)(=O)c4cccnc4)CC3)nc2)CC1 | 2000 nM | 100% | –
CCCS(=O)(=O)N1CCN(c2ccc(OCC3CCN(C(=O)N4CCOCC4)CC3)cn2)CC1 | > 10000 nM | 41% | –
CCCS(=O)(=O)N1CCN(c2ccc(OCC3CCN(C(=O)NC4CCCCC4)CC3)cn2)CC1 | > 10000 nM | 16% | –
CC(C)OC(=O)N1CCC(COc2ccc(N3CCN(C(=O)c4ccco4)CC3)nc2)CC1 | 1900 nM | 112% | –
CCS(=O)(=O)N1CCN(c2ccc(OC3CCN(C(=O)OC(C)C)CC3)cn2)CC1 | 2100 nM | 93% | –
COCCN1CCN(c2ccc(OCC3CCN(C(=O)OC(C)C)CC3)cn2)CC1 | 2600 nM | 28% | –
CCCS(=O)(=O)N1CCN(c2ccc(OCC3CCN(C(=O)CC(C)(C)C)CC3)cn2)CC1 | 2800 nM | 175% | –
O=[N+]([O-])c1c(Nc2ccc(-n3cncn3)cc2)ncnc1N1CCC(Sc2ccccn2)CC1 | – | – | EC50 [3]: 130 nM
CCCS(=O)(=O)N1CCN(c2ccc(OCC3CCN(C(=O)NC(C)C)CC3)cn2)CC1 | 1000 nM | 45% | –
CCS(=O)(=O)N1CCN(c2ccc(OCC3CCN(C(=O)OC(C)C)CC3)cn2)CC1 | 1300 nM | 167% | –
CCCS(=O)(=O)N1CCN(c2ccc(OCCC3CCN(C(=O)OC(C)C)CC3)cn2)CC1 | 700 nM | 95% | –
CCCS(=O)(=O)N1CCN(c2ccc(OCC3CCN(C(=O)CC(C)C)CC3)cn2)CC1 | 1600 nM | 186% | –
CC(C)OC(=O)N1CCC(COc2ccc(N3CCN(S(=O)(=O)c4cccs4)CC3)nc2)CC1 | 1800 nM | 69% | –
CCS(=O)(=O)N1CCN(c2ccc(OCCC3CCN(C(=O)OC(C)C)CC3)cn2)CC1 | 1200 nM | 69% | –
CCCS(=O)(=O)N1CCN(c2ccc(OCC3CCN(C(=O)NC(C)(C)C)CC3)cn2)CC1 | 800 nM | 75% | –
CCCS(=O)(=O)N1CCN(c2ccc(OCC3CCN(C(=O)Nc4ccc(C(C)C)cc4)CC3)cn2)CC1 | 900 nM | 67% | –
CC(=O)N1CCN(c2ccc(OCC3CCN(C(=O)OC(C)C)CC3)cn2)CC1 | > 10000 nM | < 10% | –
CCCS(=O)(=O)N1CCN(c2ccc(OCC3CCN(C(=O)OC(C)C)CC3)cn2)CC1 | 300 nM | 153% | Cmax [4]: 3080 ng/mL; Cmax [5]: 3000 ng/mL; Tmax [6]: 45 min; Tmax [7]: 15 min; half-life [8]: 37.2 min; half-life [9]: 24 min; AUC at 24 h [10]: 3130 ng·h/mL; AUC at 24 h [11]: 2350 ng·h/mL; clearance (Mus musculus): 15.7 mL/min/kg; Vd [12]: 0.76 L/kg; Papp [13]: 47 ×10⁻⁶ cm/s; solubility [14]: 3.41 µg/mL (≈ 7.28 µM); bioavailability [15]: 8%
CCCCS(=O)(=O)N1CCN(c2ccc(OCC3CCN(C(=O)OC(C)C)CC3)cn2)CC1 | 100 nM | 164% | –
CCCS(=O)(=O)N1CCN(c2ccc(OCC3CCN(C(=O)C(F)F)CC3)cn2)CC1 | 2100 nM | 97% | –
